Here are results for five compounds from PMC9963684, “Meroterpenoids with Immunosuppressive Activity from Edible Fungus Craterellus odoratus” (Molecules, 2023).

Molecules are shown by their SMILES. Converted amounts (≈) assume the structure as drawn. Peptide text beside a SMILES is read from it. * marks the point of attachment. Cbz = O=C(OCc1ccccc1)* A value given as a limit tells only on which side of the number the result lay.

A short description of data set [1]: Cytotoxicity assay (CCK-8) on spleen cells. It counts as cell-based. As to conditions: female, fresh spleen cells (splenic lymphocytes), BALB/c mouse spleen cells. As to the method: (§1) Female BALB/c mice were sacrificed by cervical dislocation, and the spleens were removed aseptically. Mononuclear cell suspensions were prepared after cell debris and clumps were removed. Erythrocytes were depleted with ammonium chloride buffer solution. Lymphocytes were washed and resuspended in RPMI-1640 medium supplemented with 10% FBS, penicillin (100 U/mL), and streptomycin ([…]).
Cytotoxicity was tested with Cell Counting Kit-8 (CCK-8) assay. Briefly, fresh spleen cells were gained from female BALB/c mice (18–20 g). Spleen cells (1 ×10^6 cells) were seeded in triplicate in 96-well flat plates, then cultured at 37 °C for 48 h in 96-well flat plates in the presence or absence of various concentrations of compounds, as well as in a humidified and 5% CO2-containing incubator. A certain amount of CCK-8 was added to each well at the final 8–10 h of culture. At the end of culturing, we measured the OD values with a microplate reader (Bio-Rad 650, Hercules, CA, USA) at 450 nm. […] The cytotoxicity of each compound was expressed as the concentration of compound that reduced cell viability to 50% (CC50).

For data set [2], the system named is LPS-induced B-cell proliferation (spleen cells). Kind of data set: LPS-induced B-cell proliferation ([3H]-thymidine uptake). It counts as cell-based. As to conditions: Mus musculus, spleen cells stimulated with 10 µg/mL LPS. As to the method:
as §1
(§2) Fresh spleen cells were obtained from female BALB/c mice (18–20 g). The 5 × 10^5 spleen cells were cultured at the same conditions as those mentioned above. The cultures, in the presence or absence of various concentrations of compounds, were stimulated with 5 µg/mL of concanavalin A (ConA) or 10 µg/mL of lipopolysaccharide (LPS) to induce T-cells’ or B-cells’ proliferative responses, respectively. Proliferation was assessed in terms of uptake of [^3H]-thymidine during 8 h of pulsing with 25 µL/well of [^3H]-thymidine, and then cells were harvested onto glass fiber filters. The incorporated radioactivity was counted using a Beta scintillation counter (MicroBeta Trilux; PerkinElmer Life Sciences, Waltham, MA, USA). Cells treated without any stimuli were used as a negative control. The immunosuppressive activity of each compound was expressed as the concentration of compound that inhibited ConA-induced T-cell proliferation or LPS-induced B-cell proliferation to 50% (IC50) of the control value. […]

The subject of data set [3] is Escherichia coli. Also on record: L.V. Levchenko S.V. O’Neill D.P. Advances in methods and algorithms in a modern quantum chemistry program. Particulars: cited from earlier work.
Data set [4] relates to human 11β-hydroxysteroid dehydrogenases (11β-HSD1). Also on record: method as in PMID 19879607. As to conditions: cited from earlier work.
In data set [5] the test system is Micrococcus luteus. Also on record: L.V. Levchenko S.V. O’Neill D.P. Advances in methods and algorithms in a modern quantum chemistry program. As to conditions: cited from earlier work.
In data set [6] the test system is Staphylococcus aureus. Details: method as in ref 17 =  L.V. Levchenko S.V. O’Neill D.P. Advances in methods and algorithms in a modern quantum chemistry program. Particulars: cited from earlier work.
The test system of data set [7] is ConA-induced T-cell proliferation (spleen cells). The data set is described as follows: ConA-induced T-cell proliferation ([3H]-thymidine uptake). Particulars: Mus musculus, spleen cells stimulated with 5 µg/mL ConA. In kind it is cell-based. The protocol:
as §1, §2

For data set [8], the system named is Bacillus cereus. Also on record: method as in ref 17 = [17];  L.V. Levchenko S.V. O’Neill D.P. Advances in methods and algorithms in a modern quantum chemistry program. As to conditions: cited from earlier work.
For data set [9], the system named is human 11β-HSD2. Also on record: method as in PMID 19879607. Particulars: cited from earlier work.
For data set [10], the system named is NO production in LPS-activated RAW264.7 macrophages. The data set is described as follows: Nitric oxide production in LPS-activated RAW264.7 macrophages. It counts as cell-based, murine. As to conditions: Mus musculus, positive control, 1 μg/mL LPS, 18 h. The protocol: Murine monocytic RAW264.7 macrophages were dispensed into 96-well plates (2 × 10^5 cells/well) containing RPMI-1640 medium (HyClone) with 10% FBS under a humidified atmosphere with 5% CO2 at 37 °C. After 24 h of preincubation, cells were treated with serial dilutions of the test compounds, up to a maximum concentration of 40 μM, in the presence of 1 μg/mL LPS for 18 h. The compounds were dissolved in DMSO and further diluted in the medium to produce different concentrations. NO production in each well was assessed by adding 100 μL of Griess reagent (reagent A and reagent B, Sigma, St. Louis, MO, USA) to 100 μL of each supernatant from the LPS-treated (Sigma) or LPS- and compound-treated cells in triplicate. After a 5 min incubation, the absorbance of samples was measured at 570 nm with a 2104 Envision multilabel plate reader (Perkin-Elmer Life Sciences, Inc., Boston, MA, USA).

In data set [11] the test system is human embryonic kidney 293 cell. Also on record: method as in PMID 26669092. As to conditions: read-out: IC50 against human embryonic kidney 293 cell; cited from earlier work.

`CC1=CCC2C(C)(C)CCCC2(C)C1CC12OC1C(=O)C(Cc1c(O)cc(CC(C)O)oc1=O)=CC2O` (stereo not shown) [Compound 1, craterodoratin T] yielded a CC50 at 48 h in data set [1] greater than 40 µM. Also, the IC50 in data set [2] came out at 5.52 ± 0.452 µM.

In [1], `CC1=CC[C@H]2C(C)(C)CCC[C@]2(C)[C@H]1C[C@@]12O[C@@H]1[C@H](O)C(CO)=C[C@H]2O` [Compound 3, craterellin A] had a CC50 at 48 h greater than 40 µM. For the same compound, in data set [3], the “MIC against Escherichia coli” value was 6.25 µM (≈ 2.27 µg/mL). The “IC50 against human 11β-HSD1” value in data set [4] was 9.1 mg/L (≈ 25.1 µM). Moreover, the “MIC against Micrococcus luteus” value in [5] is 6.25 µM (≈ 2.27 µg/mL). Besides, the “MIC against Staphylococcus aureus” value in [6] is 6.25 µM (≈ 2.27 µg/mL). Also, the IC50 stood at 9.07 ± 0.644 µM in [7] and 20 ± 1.38 µM in [2]. For the same compound, the “MIC against Bacillus cereus” value in data set [8] was 3.12 µM (≈ 1.13 µg/mL). The “IC50 against human 11β-HSD2” value in data set [9] is 1.5 mg/L (≈ 4.14 µM).

On to `CC(C)C[C@@H](C=O)NC(=O)[C@H](CC(C)C)NC(=O)[C@H](CC(C)C)NC(=O)OCc1ccccc1` [MG-132] (Cbz-Leu-Leu-Leu-aldehyde), for which, in data set [10], the IC50 was determined as 0.2 µM.

On to `CC1=CCC2C(C)(C)C(O)CCC2(C)C1CC12OC1C(O)C(CO)=CC2O` (stereo not shown) [craterellin B], for which the “IC50 against human 11β-HSD1” value in [4] was 3.5 mg/L (≈ 9.25 µM).

In the case of `C=C1[C@@H](O)[C@H]2O[C@@]2(C[C@H]2C(C)=CC[C@H]3C(C)(C)CCC[C@]23C)[C@H](O)[C@H]1O` [craterellin C], in data set [4], the “IC50 against human 11β-HSD1” value is 14.8 mg/L (≈ 40.8 µM). In [11], the IC50 was 50.9 µM. Further, the “IC50 against human 11β-HSD2” value in [9] is 25.4 mg/L (≈ 70.1 µM).

As a reminder, the CC50 is the concentration that lowers cell viability or growth by half. Low readings indicate greater toxicity to the cells, high ones lower toxicity to the cells. One may read the IC50 as the concentration at which inhibition is half-maximal.
